Several values for one entry are separate records, joined by “and”; a condition that tells them apart may be missing. Equal values may be shown once. Non-standard residues stand in square brackets, D forms with d. Residues, ends and D or L forms follow the SMILES beside them. No end group written: not given here.
Legend:
CVA6 = assay: Anti-CVA6 effect in Vero cells, qRT-PCR; assay type: cell-based, Coxsackievirus A6; conditions: for Virus inhibition rate (%): CVA6 MOI 0.01, Vero cells, 24 h, qRT-PCR
Method: • (1) Vero cells were plated in a 24-well cell plate. • (2) After the cells reached 70%-80% confluence, the MEM medium containing 10% serum was replaced with a MEM medium containing 2% serum and CVA6 virus, 0.5 ml per well. MOI of the virus was 0.01. The wells without CVA6 virus was set as control group. • (3) After 1 h, […], respectively. • (4) Samples were collected 24 hours after virus infection, and RNA was extracted with total RNA extraction kit as follows. • (5) The supernatant in the wells was discarded, then 350 μl of TRK Lysis Buffer was added to each well and the plate was shaken on the shaker for 5 minutes. • (6) 350 μl of 70% ethanol (DEPC-treated) was added to the well and the plate was shaken on the shaker for 5 minutes. • (7) The mixture in the well was transferred to a RNA extraction column and centrifuged at 12000 g for 1 min. • (8) The solution collected in the recovery tube was added back to the column and centrifuged at 12000 g for 1 min. • (9) RNA washing buffer 1 was added to the column and centrifuged at 12,000 g for 30 s. • (10) RNA washing buffer 2 was added to the column and centrifuged at 12,000 g for 1 min. • (11) Step (10) was repeated once. • (12) The column was centrifuged at 12,000 g for 2 min to completely remove residual RNA washing buffer. • (13) 50 μl DEPC-treated H2O was added to the column and centrifuge at 12,000 g for 2 min. • (14) 2 μl RNA sample was used according to one step qRT-PCR kit for fluorescence quantification experiment.

EV71 [1] = assay: Antiviral activity against EV71 in mice, virus copies in lung by qRT-PCR; assay type: in vivo, ICR mice
Excerpt: • (1) 10 2-day-old ICR mice were randomly divided into two groups, 5 in each group.

[2] = Cytotoxicity by CCK-8 in Vero cells; assay type: cell-based; conditions: 24 h, read-out: Cell viability (%)
Method: (§1) The experiment was performed as follows. • (1) Vero cells were plated in a 96-well plate at 100 μl per well. • (2) After the cells reached 70%-80% confluence, the MEM medium containing 10% serum was replaced with a MEM medium containing 2% serum. Then, polypeptide BP8, BP10 or BP15 was added to generate gradient concentrations of […], […], 12.5 μM, 25 μM, 50 μM, 100 μM, and 200 μM (final concentrations), respectively. • (3) The samples were collected 24 hours after the addition of the polypeptide, and 10 μl of live cell detection reagent CCK-8 was added to each well and mixed well. • (4) The plate was placed at 37° C. for 4 h. • (5) The absorbance value at OD450 was measured with a microplate reader.

Vero cells = assay: Cytotoxicity by CCK-8 in Vero cells; assay type: cell-based; conditions: for Cell viability (%): 24 h
Method: as §1

EV71 [3] = assay: Anti-EV71 efficiency in Huh7.5 cells, viral RNA by qRT-PCR; assay type: cell-based, enterovirus 71; conditions: read-out: IC50 against EV71 by qRT-PCR
Excerpt: […]

EV71 [4] = assay: Anti-EV71 efficiency in Vero cells, viral RNA by qRT-PCR; assay type: cell-based, enterovirus 71; conditions: read-out: IC50 against EV71 by qRT-PCR
Excerpt: […]

With `CC(=O)N[C@H](CCCNC(=N)N)C(=O)N[C@H](CS)C(=O)N[C@H](Cc1ccc(O)cc1)C(=O)N[C@H](CCC(N)=O)C(=O)N[C@H](CCCNC(=N)N)C(=O)N[C@@H](C(=O)N[C@H](CCC(=O)O)C(=O)N[C@H](CCC(=O)O)C(=O)N1CCC[C@@H]1C(=O)N1CCC[C@@H]1C(=O)N[C@H](CCCNC(=N)N)C(=O)N[C@H](CCCNC(=N)N)C(=O)N[C@H](CCCNC(=N)N)C(=O)N[C@H](CCC(N)=O)C(=O)N[C@H](CCCNC(=N)N)C(=O)N[C@H](CCCNC(=N)N)C(=O)N[C@H](CCCCN)C(=O)N[C@H](CCCCN)C(=O)N[C@H](CCCNC(=N)N)C(=O)NCC(=O)N[C@H](Cc1ccc(O)cc1)C(N)=O)C(C)C` [ER-DRI] (Ac-[dR][dC][dY][dQ][dR][dV][dE][dE][dP][dP][dR][dR][dR][dQ][dR][dR][dK][dK][dR]G[dY]-NH2) the “Virus inhibition rate (%)” value (CVA6; 0.625 μM) was 71.8% and 74.9% and 67.5%, the “Virus inhibition rate (%)” value (CVA6; 2.15 μM) was 72.6% and 85.3% and 90.4% and the “Virus inhibition rate (%)” value (CVA6; 2.5 μM) was 91.3% and 93.4% and 91.7%. The “Virus inhibition rate (%)” value (CVA6; 5 μM) was 94.3% and 94.9% and 96.4%, the “Virus inhibition rate (%)” value (CVA6; 10 μM) was 91.4% and 97.8% and 97.9% and the “effect on CVA6 replication, in words” value (CVA6; Vero cells) was “able to inhibit the replication of CVA6”. The IC50 (CVA6; Vero cells, read-out: IC50 against CVA6) was less than 625 nM, the “EV71 viral load in mouse lung, in words” value (EV71 [1]; 10 mg/kg i.p. every 12 h for 5 days vs PBS) was “can significantly reduce the viral load of EV71 in the mouse lung” and the “Number of virus copy in lung tissue (Copies/g)” value (EV71 [1]; 2-day-old ICR mice, EV71 i.p., 10 mg/kg i.p. every 12 h for 5 days, individual animals, 10 mg/kg) was 294534 Copies/g and 484192 Copies/g and 2956937 Copies/g and 549759 Copies/g and 116302 Copies/g.

Work on YGRKKRRQRRRGSGEAVREYCK [BP8] yielded a viability at 24 h, 3.0625 µM ([2]; 3.0625 μM) of 103%, a viability at 24 h, 6.125 µM ([2]; 6.125 μM) of 101% and a viability at 24 h, 12.5 µM ([2]; 12.5 μM) of 95.5%. For the same compound, the viability at 24 h, 25 µM ([2]; 25 μM) was 96.6%, the viability at 24 h, 50 µM ([2]; 50 μM) was 94.4% and the viability at 24 h, 100 µM ([2]; 100 μM) was 99.7%. The viability at 24 h, 200 µM ([2]; 200 μM) was 87.2%, the “Cell viability (%)” value (Vero cells; 3.0625 μM) was 105.2007% and 108.7417% and the “Cell viability (%)” value (Vero cells; 6.125 μM) was 111.3814% and 119.3004%. For the same compound, the “Cell viability (%)” value (Vero cells; 12.5 μM) was 106.8102% and 109.1924%, the “Cell viability (%)” value (Vero cells; 25 μM) was 99.47% and 113.6348% and the “Cell viability (%)” value (Vero cells; 50 μM) was 108.2266% and 112.4759%. For the same compound, the “Cell viability (%)” value (Vero cells; 100 μM) was 96.7% and 97.35%, the “Cell viability (%)” value (Vero cells; 200 μM) was 92.0023% and 92.52% and the “cytotoxicity, result in words” value (Vero cells; CCK-8, 24 h) was “not toxic to cells within 200 μM”.

With RRRRRRRREEVRQYCRDQ [P2] the IC50 (EV71 [3]) was 1840 nM and the IC50 (EV71 [4]) was 1960 nM.
